According to patent US20060286140A1, “Implants with attached silylated therapeutic agents” (priority 2003, published 2006):

Tests used:
S. aureus (ATCC 25923) = assay: Disc diffusion assay; assay type: cell-based; settings: 1 μg/mL solution, 20 μL on six mm filter disk, overnight
Protocol: Disc Diffusion Assay. Six mm sterile filter disks can be directly placed onto a full-grown lawn of S. aureus (ATCC 25923) culture, and known volumes (20 μL) and dilutions of the eluted antibiotic can be pipetted onto the disc. After incubation overnight, the area of the resultant adjacent clear zone that is devoid of bacterial growth can be measured and compared with the area cleared by a standard series of known doses of rifampin. A 1 μg/mL solution of rifampin should give a clear zone of 4-5 cm. The lower limit of sensitivity of this assay is expected to be in the 10 ng/mL range.

S. aureus = settings: in vitro, most strains including S. aureus; cited from earlier work
E. faecalis = settings: in vitro; cited from earlier work
E. faecium = settings: in vitro; cited from earlier work

| Structure (SMILES) | clear zone (S. aureus (ATCC 25923)) | MIC90 (S. aureus) | activity relative to linezolid (E. faecalis) [fold] | activity relative to quinupristin-dalfopristin (E. faecalis) [fold] | activity relative to linezolid (E. faecium) [fold] | activity relative to quinupristin-dalfopristin (E. faecium) [fold] |
| --- | --- | --- | --- | --- | --- | --- |
| CO[C@H]1/C=C/O[C@@]2(C)Oc3c(C)c(O)c4c(O)c(c(/C=N/N5CCN(C)CC5)c(O)c4c3C2=O)NC(=O)/C(C)=C\C=C\[C@H](C)[C@H](O)[C@@H](C)[C@@H](O)[C@@H](C)[C@H](OC(C)=O)[C@@H]1C (relative stereo) [rifampin, (2S*,12Z,14E,16R*,17R*,18S*,19S*,20S*,21R*,22S*,23R*,24E)-5,6,9,17,19,21-hexahydroxy-23-methoxy-2,4,12,16,18,20,22-heptamethyl-8-[N-(4-methyl-1-piperazinyl)formimidoyl]-2,7-(epoxypentadeca[1,11,13]trienimino)naphtha[2,1-b]furan-1,11-deone 21-acetate] | 4-5 cm |  |  |  |  |  |
| CN(C)c1cc(NC(=O)CNC(C)(C)C)c(O)c2c1C[C@H]1C[C@H]3[C@H](N(C)C)C(O)=C(C(N)=O)C(=O)[C@@]3(O)C(O)=C1C2=O [tigecyclin] |  | less than 0.25 mg/mL | ~8 | 32 | ~8 | 32 |
